According to US20240368209A1, “GEMCITABINE ANTICANCER DERIVATIVE AND ANTICANCER PHARMACEUTICAL USE” (ASCENTAWITS PHARMACEUTICALS, LTD., priority 2021, published 2024):

Test system: HuPrime pancreatic cancer xenograft model PA1222
Assay: In vivo pharmacodynamic experiment in HuPrime pancreatic cancer PA1222 PDX model
Conditions: for Tumor volume (x ± S): mean ± standard error
[1] = Group 3, 240 mg/kg p.o. QD×21, Day 32
[2] = Group 4, 160 mg/kg i.p. QD×5, 2 days off, 2 weeks off, QD×5, Day 32

Q: Which “weight loss and tolerability during treatment” value (Group 3, 240 mg/kg p.o. QD×21) does the source give for `CC(C)NP(=O)(OCc1ccc([N+](=O)[O-])c(Oc2ccc(-c3ccc(F)cc3)c(F)c2)c1)OCC1OC(C2N=CC(N)=NC2=O)C(F)(F)C1O` (centres unmarked) [Compound H11] here?
A: Its value is “did not show any significant weight loss, and tolerated well”.

Q: What about the “Relative tumor volume (x ± S)” value [1] of the same compound?
A: The value was 0.47 ± 0.27.

Q: What about the “T/C (%)” value [1] of the same compound?
A: The value was 7.65%.

Q: And the “TGI (%)” value [1]?
A: The value was 92.35%.

Q: And the “complete tumor inhibition rate” value [1]?
A: Its value is 20%.

Q: What about the “Tumor volume (x ± S)” value [1] of the same compound?
A: The value was 44.61 ± 22.14.

Q: What about the “Average weight (g) of mice” value (Group 3, 240 mg/kg p.o., Day 0) of the same compound?
A: The value was 21.8 g.

Q: And the “Average weight (g) of mice” value (Group 3, 240 mg/kg p.o., Day 1)?
A: The value was 21.5 g.

Q: What about the “Average weight (g) of mice” value (Group 3, 240 mg/kg p.o., Day 2) of the same compound?
A: Its value is 21.5 g.

Q: What about the “Average weight (g) of mice” value (Group 3, 240 mg/kg p.o., Day 3) of the same compound?
A: Its value is 21.6 g.

Q: And the “Average weight (g) of mice” value (Group 3, 240 mg/kg p.o., Day 4)?
A: The value was 21.9 g.

Q: What about the “Average weight (g) of mice” value (Group 3, 240 mg/kg p.o., Day 5) of the same compound?
A: Its value is 22.3 g.

Q: And the “Average weight (g) of mice” value (Group 3, 240 mg/kg p.o., Day 6)?
A: Its value is 21.7 g.

Q: And the “Average weight (g) of mice” value (Group 3, 240 mg/kg p.o., Day 7)?
A: The value was 21.6 g.

Q: And the “Average weight (g) of mice” value (Group 3, 240 mg/kg p.o., Day 8)?
A: Its value is 21.7 g.

Q: What about the “Average weight (g) of mice” value (Group 3, 240 mg/kg p.o., Day 9) of the same compound?
A: Its value is 22.5 g.

Q: And the “Average weight (g) of mice” value (Group 3, 240 mg/kg p.o., Day 10)?
A: The value was 21.6 g.

Q: What about the “Average weight (g) of mice” value (Group 3, 240 mg/kg p.o., Day 11) of the same compound?
A: Its value is 21.9 g.

Q: And the “Average weight (g) of mice” value (Group 3, 240 mg/kg p.o., Day 12)?
A: Its value is 22.0 g.

Q: And the “Average weight (g) of mice” value (Group 3, 240 mg/kg p.o., Day 13)?
A: The value was 21.9 g.

Q: What about the “Average weight (g) of mice” value (Group 3, 240 mg/kg p.o., Day 14) of the same compound?
A: Its value is 21.6 g.

Q: What about the “Average weight (g) of mice” value (Group 3, 240 mg/kg p.o., Day 15) of the same compound?
A: The value was 21.6 g.

Q: And the “Average weight (g) of mice” value (Group 3, 240 mg/kg p.o., Day 16)?
A: The value was 22.1 g.

Q: And the “Average weight (g) of mice” value (Group 3, 240 mg/kg p.o., Day 17)?
A: Its value is 21.8 g.

Q: And the “Average weight (g) of mice” value (Group 3, 240 mg/kg p.o., Day 18)?
A: The value was 21.9 g.

Q: And the “Average weight (g) of mice” value (Group 3, 240 mg/kg p.o., Day 19)?
A: The value was 21.8 g.

Q: And the “Average weight (g) of mice” value (Group 3, 240 mg/kg p.o., Day 20)?
A: The value was 21.9 g.

Q: What about the “Average weight (g) of mice” value (Group 3, 240 mg/kg p.o., Day 21) of the same compound?
A: The value was 21.8 g.

Q: What about the “Average weight (g) of mice” value (Group 3, 240 mg/kg p.o., Day 25) of the same compound?
A: Its value is 22.6 g.

Q: What about the “Average weight (g) of mice” value (Group 3, 240 mg/kg p.o., Day 28) of the same compound?
A: The value was 22.4 g.

Q: And the “Average weight (g) of mice” value (Group 3, 240 mg/kg p.o., Day 32)?
A: Its value is 22.9 g.

Q: And the “Tumor volume (mm^3) (x ± S)” value (Group 3, 240 mg/kg p.o., day 0)?
A: The value was 102.83 mm^3.

Q: What about the “Tumor volume (mm^3) (x ± S)” value (Group 3, 240 mg/kg p.o., day 4) of the same compound?
A: Its value is 123.16 mm^3.

Q: And the “Tumor volume (mm^3) (x ± S)” value (Group 3, 240 mg/kg p.o., day 7)?
A: The value was 90.07 mm^3.

Q: And the “Tumor volume (mm^3) (x ± S)” value (Group 3, 240 mg/kg p.o., day 11)?
A: The value was 54.28 mm^3.

Q: And the “Tumor volume (mm^3) (x ± S)” value (Group 3, 240 mg/kg p.o., day 14)?
A: The value was 41.73 mm^3.

Q: What about the “Tumor volume (mm^3) (x ± S)” value (Group 3, 240 mg/kg p.o., day 18) of the same compound?
A: The value was 34.60 mm^3.

Q: What about the “Tumor volume (mm^3) (x ± S)” value (Group 3, 240 mg/kg p.o., day 21) of the same compound?
A: The value was 29.52 mm^3.

Q: What about the “Tumor volume (mm^3) (x ± S)” value (Group 3, 240 mg/kg p.o., day 25) of the same compound?
A: Its value is 30.71 mm^3.

Q: What about the “Tumor volume (mm^3) (x ± S)” value (Group 3, 240 mg/kg p.o., day 28) of the same compound?
A: Its value is 30.59 mm^3.

Q: What about the “Tumor volume (mm^3) (x ± S)” value (Group 3, 240 mg/kg p.o., day 32) of the same compound?
A: The value was 44.61 mm^3.

Q: And the “weight loss and tolerability during treatment” value (Group 4, 160 mg/kg i.p. QD×5, 2 days off, 2 weeks off, QD×5)?
A: The value was “did not show any significant weight loss, and tolerated well”.

Q: What about the “Relative tumor volume (x ± S)” value [2] of the same compound?
A: Its value is 2.01 ± 0.41.

Q: What about the “T/C (%)” value [2] of the same compound?
A: The value was 32.38%.

Q: And the “TGI (%)” value [2]?
A: Its value is 67.62%.

Q: And the “Tumor volume (x ± S)” value [2]?
A: Its value is 202.58 ± 45.40.

Q: And the “Average weight (g) of mice” value (Group 4, 160 mg/kg i.p., Day 0)?
A: Its value is 21.4 g.

Q: What about the “Average weight (g) of mice” value (Group 4, 160 mg/kg i.p., Day 1) of the same compound?
A: The value was 22.0 g.

Q: And the “Average weight (g) of mice” value (Group 4, 160 mg/kg i.p., Day 2)?
A: The value was 21.5 g.

Q: What about the “Average weight (g) of mice” value (Group 4, 160 mg/kg i.p., Day 3) of the same compound?
A: Its value is 22.0 g.

Q: What about the “Average weight (g) of mice” value (Group 4, 160 mg/kg i.p., Day 4) of the same compound?
A: The value was 21.7 g.

Q: And the “Average weight (g) of mice” value (Group 4, 160 mg/kg i.p., Day 7)?
A: The value was 22.3 g.

Q: And the “Average weight (g) of mice” value (Group 4, 160 mg/kg i.p., Day 11)?
A: The value was 22.5 g.

Q: What about the “Average weight (g) of mice” value (Group 4, 160 mg/kg i.p., Day 14) of the same compound?
A: The value was 22.9 g.

Q: And the “Average weight (g) of mice” value (Group 4, 160 mg/kg i.p., Day 18)?
A: The value was 22.7 g.

Q: What about the “Average weight (g) of mice” value (Group 4, 160 mg/kg i.p., Day 21) of the same compound?
A: Its value is 22.9 g.

Q: What about the “Average weight (g) of mice” value (Group 4, 160 mg/kg i.p., Day 22) of the same compound?
A: Its value is 22.6 g.

Q: And the “Average weight (g) of mice” value (Group 4, 160 mg/kg i.p., Day 23)?
A: Its value is 22.5 g.

Q: What about the “Average weight (g) of mice” value (Group 4, 160 mg/kg i.p., Day 24) of the same compound?
A: The value was 22.6 g.

Q: What about the “Average weight (g) of mice” value (Group 4, 160 mg/kg i.p., Day 25) of the same compound?
A: Its value is 22.5 g.

Q: What about the “Average weight (g) of mice” value (Group 4, 160 mg/kg i.p., Day 28) of the same compound?
A: Its value is 22.6 g.

Q: What about the “Average weight (g) of mice” value (Group 4, 160 mg/kg i.p., Day 32) of the same compound?
A: The value was 23.3 g.
